The target of this assay is T1, ZAP70 (Homo sapiens, UniProt P43403).
T1 construct: purchased Thermo Fisher Scientific (Life Technologies) SelectScreen
The assay can be described thus: SelectScreen Z'LYTE. The format is biochemical. Summed up:
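NU5455 was profiled across the SelectScreen Broad panel of kinase activity and binding assays. Z'LYTE reactions such as CSF1R ran at apparent Km ATP, while the Adapta CAMK1 assay used ATP listed as 10. Values are given as percent.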

One molecule from PMC6934184, “Selective DNA-PKcs inhibition extends the therapeutic index of localized radiotherapy and chemotherapy” (The Journal of Clinical Investigation, 2019) can be followed below.

T1 sequence (P43403 whole entry): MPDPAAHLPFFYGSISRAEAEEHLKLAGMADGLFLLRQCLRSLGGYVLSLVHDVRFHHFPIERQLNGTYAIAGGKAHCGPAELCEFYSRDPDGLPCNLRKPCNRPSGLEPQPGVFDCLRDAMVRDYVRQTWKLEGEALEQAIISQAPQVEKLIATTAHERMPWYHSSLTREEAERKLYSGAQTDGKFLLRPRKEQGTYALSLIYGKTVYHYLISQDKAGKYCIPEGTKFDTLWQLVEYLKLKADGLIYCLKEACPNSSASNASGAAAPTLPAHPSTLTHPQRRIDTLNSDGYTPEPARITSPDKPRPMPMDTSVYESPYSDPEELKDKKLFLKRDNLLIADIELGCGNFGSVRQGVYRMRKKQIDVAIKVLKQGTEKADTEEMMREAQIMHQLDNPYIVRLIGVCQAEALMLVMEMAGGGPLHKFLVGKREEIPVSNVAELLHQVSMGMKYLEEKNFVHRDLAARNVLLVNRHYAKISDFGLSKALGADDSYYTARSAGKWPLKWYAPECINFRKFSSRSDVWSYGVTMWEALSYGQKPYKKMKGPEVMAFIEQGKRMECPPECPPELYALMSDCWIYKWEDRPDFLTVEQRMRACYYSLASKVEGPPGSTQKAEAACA

What is called inhibition is the change of the read-out against control, counted positive when it falls. Molecule `CN(C(=O)CN1CCOCC1)c1ccc2sc3c(-c4cccc5c(=O)cc(N6CC7CCC(C6)O7)oc45)cccc3c2c1` [NU5455] returned an inhibition at 1 µM of 0.3%.
